Data as given in publication PMC6331730 (The EMBO Journal, 2018).

Tested on: Purified tubulin with GST-tagged CPAP PN2-3 (pull-down)
Test: GST-PN2-3 pull-down, semi-quantitative Western blot
Format: binding
Details: protein-protein interaction inhibition

Question: With `COc1ncc2cc3ccccc3nc2c1C#N` [CCB02, 3‐Methoxybenzo[b][1,6]naphthyridine‐4‐carbonitrile] as the molecule, how does the IC50 read?
Answer: ~0.441 µM
